Reference: the OligoGym collection
Bases are written 5' to 3'; sugars and linkages follow in the same order, as letters with counts (s phosphorothioate, o phosphodiester; PS: all linkages phosphorothioate). The collection does not say whether C is 5-methylated. l = locked nucleic acid (LNA); d = 2'-deoxy (DNA)

Molecular target: not listed separately
Experiment: rat primary cortical neurons, FLIPR, 25 uM ASO

Sequence	calcium oscillation score
AAATCTATAATAACCACCAC (sugars l3 d14 l3, PS)	80.2 % of control
CAAACTTATATCTTTCAAAC (sugars l4 d12 l4, PS)	78.3 % of control
CAAATCATCCATCTATAAAC (sugars l4 d12 l4, PS)	88.8 % of control
CAACCAACAATACTTTAAAC (sugars l4 d12 l4, PS)	85.6 % of control
CACAACTATTAAATACCAAC (sugars l3 d14 l3, PS)	83.8 % of control
CACAATCTAACTATTAAC (sugars l3 d12 l3, PS)	76.5 % of control
CCAAATCTTATAATAACTAC (sugars ldlllddddddddddlldll, PS)	80.2 % of control
CTAAATCCTTAATATCAAAC (sugars l4 d12 l4, PS)	79.3 % of control
CTAATATTATAACCATCAAC (sugars l3 d14 l3, PS)	82 % of control
TAACTAACTTAACTCAAC (sugars l3 d12 l3, PS)	74.7 % of control
TACCATACAATAACTTTAAC (sugars l3 d14 l3, PS)	76.5 % of control
TACTCAAATATAACACCAAC (sugars l3 d14 l3, PS)	85.6 % of control
TCCACTAACCAATATAAC (sugars l3 d12 l3, PS)	76.5 % of control

Molecular target: STC1
Experiment: rat primary cortical neurons, FLIPR, 25 uM ASO

Sequence	calcium oscillation score
AACATTCAAGCCTTTC (sugars l3 d9 l4, PS)	109 % of control
ACATTCAAGCCTTTCC (sugars l4 d10 l2, PS)	81.6 % of control
ACCTGTAACTACTTCC (sugars l3 d11 l2, PS)	100 % of control
AGCTATTTATATTCCAC (sugars l2 d11 l4, PS)	122 % of control
ATAGTTATTCCATTCC (sugars l4 d10 l2, PS)	105 % of control
ATCAATATTATTCTTCT (sugars l5 d8 l4, PS)	122 % of control
ATTATTCTTCTGTTTCC (sugars l2 d11 l4, PS)	67.6 % of control
CAACATTCAAGCCTTT (sugars l5 d7 l4, PS)	89.1 % of control
CTAATTATATATTTCCAC (sugars l4 d10 l4, PS)	119 % of control
CTATTTATATTCCACAG (sugars l4 d11 l2, PS)	69.8 % of control
TAGTTATTCCATTCCC (sugars l2 d12 l2, PS)	92.3 % of control
TAGTTATTCCATTCCCA (sugars l2 d13 l2, PS)	99.3 % of control
TATTATTCTTCTGTTTC (sugars l3 d10 l4, PS)	53.4 % of control
TATTTATATTCCACAGT (sugars l3 d10 l4, PS)	107 % of control
TCAATATTATTCTTCTG (sugars l2 d11 l4, PS)	35.4 % of control
TTACAAGTCATTTCCCT (sugars l4 d11 l2, PS)	91.8 % of control
TTACCCAAATACACACA (sugars l4 d9 l4, PS)	143 % of control
TTACCCAAATACACACAT (sugars l4 d10 l4, PS)	137 % of control
TTACCCAAATACACACATA (sugars l3 d12 l4, PS)	119 % of control

Molecular target: Tau
Experiment: rat primary cortical neurons, FLIPR, 25 uM ASO

Sequence	calcium oscillation score
TTTCTCTCTTAACTTTATTT (sugars l4 d12 l4, PS)	90.4 % of control
TTTGAAGTCCCGAGCC (sugars l3 d10 l3, PS)	22.4 % of control
TTTGAAGTCCCGAGCCAAAG (sugars l3 d14 l3, PS)	0 % of control
TTTGAGTTGAGGGACC (sugars l3 d10 l3, PS)	0 % of control
TTTGATAAAACATCCC (sugars l4 d8 l4, PS)	89 % of control
TTTGCTTCACACACCAC (sugars l2 d12 l3, PS)	89 % of control
TTTGGAAAGATGAAATTTGC (sugars l3 d14 l3, PS)	7.77 % of control
TTTGGCGTTCTCGC (sugars l3 d8 l3, PS)	28.7 % of control
TTTGTAGACTATTT (sugars l3 d8 l3, PS)	90.7 % of control
TTTGTAGACTATTTG (sugars l3 d9 l3, PS)	0 % of control
TTTGTAGACTATTTGC (sugars l3 d10 l3, PS)	0 % of control
TTTGTCATCGCTTCCA (sugars l3 d10 l3, PS)	20.7 % of control
TTTTAACTCCCAACTCTTT (sugars l2 d13 l4, PS)	99.7 % of control
TTTTAATTAAATTTCTCCCT (sugars l4 d13 l3, PS)	104 % of control
TTTTACCAATTTGCCTA (sugars l2 d11 l4, PS)	46.2 % of control
TTTTATTTCCTCCGCCA (sugars l2 d13 l2, PS)	18.5 % of control

Sequence	calcium oscillation score
TTTTCAAACACACCTTCAT (sugars l3 d12 l4, PS)	80.8 % of control
TTTTCAAACACACCTTCATT (sugars l2 d14 l4, PS)	98.6 % of control
TTTTCCCAATTATTAACCC (sugars l3 d14 l2, PS)	71.4 % of control
TTTTCTCAATGTAACCT (sugars l4 d9 l4, PS)	80.5 % of control
TTTTCTCTCTTAACTTTATT (sugars l4 d12 l4, PS)	89 % of control
TTTTCTTGTTCTAACCCC (sugars l2 d13 l3, PS)	50.1 % of control
TTTTTACCAATTTGCCT (sugars l2 d11 l4, PS)	55.5 % of control
TTTTTATTCATAACTTTTCA (sugars l4 d12 l4, PS)	56.4 % of control
TTTTTCTCTCTTAACTTT (sugars l4 d10 l4, PS)	94.5 % of control
TTTTTCTCTCTTAACTTTA (sugars l4 d11 l4, PS)	83.6 % of control
TTTTTCTCTCTTAACTTTAT (sugars l4 d12 l4, PS)	93.2 % of control
TTTTTCTTGTTCTAACCC (sugars l4 d12 l2, PS)	56.1 % of control
TTTTTTAACTCCCAACTC (sugars l4 d10 l4, PS)	95.2 % of control
TTTTTTAACTCCCAACTCT (sugars l4 d13 l2, PS)	95.7 % of control
TTTTTTAACTCCCAACTCTT (sugars l4 d14 l2, PS)	98.3 % of control
TTTTTTATTCATAACTTTTC (sugars l4 d12 l4, PS)	63.8 % of control
